# Experimental data taken from patent publication US4087328A, “Purification and immobilization of sulfhydryl oxidase” (Research Triangle Institute, priority 1975, dated 1978).
# Test system: sulfhydryl oxidase
# Assay: Effect of metal ions and EDTA on sulfhydryl oxidase activity
# Assay type: biochemical, bovine
# Method: In the second method of assay, the rate of O2 consumption was measured with an oscillating platinum electrode using a Gilson model K Oxygraph. In a typical assay, 0.2 ml of enzyme solution was added to 1.5 ml of 0.8 mM GSH which had been equilibrated at 35° in the electrode cell. […] Enzymic reaction rates were calculated from the initial slopes obtained.
# Assays were performed in phosphate at pH 7.0 and 35° using 0.8 mM GSH as substrate. An aliquot of the stock enzyme solution was removed and assayed in the presence of 1.0 mM EDTA. […] Controls were prepared using boiled enzyme and also using the dialysate containing the metal ion. In both cases, significant O2 consumption was not observed.
# [1] = EDTA-treated enzyme dialyzed against 1.0 mM solution of the metal ion, phosphate pH 7.0, 35°, 0.8 mM GSH
Molecule,Enzyme activity [1] [μmol O2 consumed/min.],also measured
[Cl][Co][Cl] [Cobalt chloride],0.021,–
O=S(=O)([O-])[O-].[Cu+2] [Copper sulfate],0.109,–
O=C(O)CN(CCN(CC(=O)O)CC(=O)O)CC(=O)O [EDTA],–,Effect of EDTA treatment on enzyme activity: complete loss of activity; Enzyme activity (pH 7): 0.012 μmol O2 consumed/min.
[Cl][Mn][Cl] [Manganese (II) chloride],0.085,–

# Second part, led by results:
Enzyme activity [1] [μmol O2 consumed/min.],Molecule,also measured
0.008,"[Br][Mo][Br] [Molybdenum dibromide, molybdenum dibromide]",–
0.029,O=S(=O)([O-])[O-].[Zn+2] [Zinc sulfate],–
0.256,Ferrous sulfate,Restoration of activity after EDTA treatment (dialysis against 1 μM ferrous sulfate): restored
